Assay results reported in ChEMBL document CHEMBL1201862, “PubChem BioAssay data set” (2004).
Activity calls are given as the source filed them.

What was measured:
Vero = experiment: cells; format: functional; conditions: Chlorocebus sabaeus
[1] = A Cell Based Secondary Assay To Explore Cytotoxicity of Compounds that Sensitize Mycobacterium Tuberculosis to Beta-Lactam Antibiotics.; format: functional
HEK293 [2] = experiment: NOD1 signaling inhibitors, primary screen, cell-based, luminescence, uHTS (AID 1578); format: functional; conditions: Homo sapiens
HEK293 [3] = experiment: cells; format: functional, cell-based; conditions: Homo sapiens
HEK293 [4] = experiment: cells; format: functional, cell-based; conditions: Homo sapiens; remark: listed apart in the source
[5] = molecular target: Nucleotide-binding oligomerization domain-containing protein 2 (Homo sapiens, UniProt Q9HC29); experiment: NOD2 signaling inhibitors, cell-based, luminescence, uHTS, HEK293 (AID 1566); format: functional
HEK293 [6] = experiment: NOD2 signaling inhibitors in MDP-stimulated cells, cell-based, uHTS, luminescence (AID 2001); format: functional; conditions: Homo sapiens
HEK293 [7] = experiment: cells; format: functional, cell-based; conditions: Homo sapiens; remark: listed apart in the source
[8] = Shn3 3'UTR reporter inhibitors, dose response, cell-based, Clone20 osteoblasts, firefly luciferase, cherry-picked (AID 624132); format: functional;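 also: firefly luciferase luminescence from reporter carrying the Shn3 3'UTR in osteoblasts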
[9] = control 3'UTR Renilla luciferase suppression, dose response, counter-screen for Shn3 inhibitor project, cell-based, Clone20-Shn3RL, cherry-picked (AID 624133); format: functional
[10] = molecular target: Induced myeloid leukemia cell differentiation protein Mcl-1 (Homo sapiens, UniProt Q07820); format: functional
[11] = microbe, parasite or virus in culture; format: functional; conditions: Mycobacterium tuberculosis
Prothrombin = Prothrombin (Homo sapiens, UniProt P00734); experiment: Thrombin 1536 HTS Dose Response Confirmation. [Related pubchem assays: 1046 (Thrombin 1536 HTS; hits were confirmed in this assay)]; format: functional
[12] = growth suppression of PTEN-null colon cells, dose response, cell-based, HCT116 PTEN knockout (AID 1047); format: functional;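 also: HCT116 colon tumor cells with PTEN knocked out; cells exposed to compound for 60 hours before readout; potency for loss of cell viability measured by luminescence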
[13] = growth suppression of beta-catenin-knockout colon cells, dose response, cell-based, HCT116, human colon tumor (AID 1045); format: functional;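 also: HCT116 colon tumor cells with beta catenin knocked out; cells exposed to compound for 60 hours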
[14] = Luminescence-based cell-based high throughput dose response assay to identify activators of the DAF-12 from the parasite S. stercoralis (ssDAF-12).; format: functional
Paired box protein Pax-8 = Paired box protein Pax-8 (Homo sapiens, UniProt Q06710); experiment: inhibitors of PAX8-driven TPO luciferase reporter, dose response, RMG-I cells, cherry-pick (AID 687027); format: functional, cell-based;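 also: luciferase reporter driven by Pax8 target thyroperoxidase promoter measured by SteadyGlo luminescence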
[15] = non-specific cell cytotoxicity, dose response, cytotoxicity control for PAX8 inhibitor project, plate reader, dry powder samples (AID 743021); format: functional, cell-based
Cytochrome P450 2C19 = Cytochrome P450 2C19 (Homo sapiens, UniProt P33261); experiment: Cytochrome panel assay with activity outcomes. Panel member name: p450-cyp2c19 Compounds with AC50 equal or less than 10 uM are considered active; format: functional; conditions: read-out: AC50
[16] = NIH-3T3 fibroblast cytotoxicity, dose response, cytotoxicity control, cell-based, fluorescence, Alamar Blue, secondary assay (AID 2327); format: functional;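 also: NIH-3T3 mouse fibroblasts cultured with fluconazole at 8 µg/mL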
[17] = C. albicans growth with fluconazole, confirmation, fluorescence, retest (AID 2467); format: functional, cell-based
[18] = inhibitors of intracellular T. cruzi replication, confirmation, NIH3T3 host cells, beta-gal luminescence (AID 2044); format: functional, cell-based;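 also: intracellular parasites grown in NIH/3T3 mouse fibroblasts as host cells; luminescent beta-galactosidase reporter signal from transgenic T. cruzi replicating inside host cells; inhibitors lower the luminescence signal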
[19] = cytotoxicity toward NIH3T3 fibroblasts, dose response, counter-screen, cell-based, ATP luminescence, mouse fibroblasts (AID 2010); format: functional;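 also: cells exposed to compound for about 90 hours before reading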
[20] = molecular target: Glucose-6-phosphate 1-dehydrogenase (Homo sapiens, UniProt P11413); experiment: human G6PD enzyme inhibitors, dose response, selectivity assay for P. falciparum G6PD inhibitor project, biochemical, fluorescence (AID 504792); format: functional
[21] = intracellular Trypanosoma cruzi inhibitors in host cells – cell-based, plate reader, cherry-pick samples, set 3, dose response (AID 651818); format: functional;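 also: compounds incubated with infected cells for about four days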
[22] = miR-122 activators in hepatoma reporter cells, dose response, cell-based, Huh7 psiCHECK-miR122, Renilla luciferase, cherry-picked (AID 651956); format: functional;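 also: huh7 hepatoma cells stably carrying a psiCHECK-2 miR-122 sensor plasmid; renilla luciferase signal reporting endogenous miR-122 activity after 48 h compound exposure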
[23] = HEK293T cytotoxicity, dose response, cytotoxicity control for miR-122 modulator project, cell-based, inhibitor set, cherry-pick, set 2 (AID 720697); format: functional
[24] = inhibitors of HIV Env-driven cell fusion, dose response, cherry-pick (AID 652057); format: functional, cell-based
[25] = ZM109 Env clade C HIV-1 fusion inhibitors, dose response, HeLa effector, CEM target cells, luciferase, cherry-pick (AID 652058); format: functional, cell-based
[26] = inhibitors of clade B AD8 Env fusion, dose response, cell-based, cherry-pick (AID 652062); format: functional;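 also: luciferase signal from cell-cell fusion driven by HIV-1 clade B AD8 Env; potency is for inhibitors of fusion seen as a drop in luminescence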
cells [27] = format: functional, cell-based
cells [28] = format: functional, cell-based; remark: listed apart in the source
[29] = cytotoxicity in HEK-293T cells, dose response, cytotoxicity control for TCR NF-kB inhibitor project, luminescence, T-cell screen hits (AID 489026); format: functional, cell-based;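 also: cells exposed to compound about 14 hours before the viability readout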
[30] = molecular target: T1, Microphthalmia-associated transcription factor (Homo sapiens, UniProt O75030); experiment: TRPM1 promoter luciferase signal decrease, dose response, MITF inhibitor project, cell-based, SK-MEL-5, cherry-picked, set 3 (AID 493073); format: functional
T1 sequence (O75030 whole entry): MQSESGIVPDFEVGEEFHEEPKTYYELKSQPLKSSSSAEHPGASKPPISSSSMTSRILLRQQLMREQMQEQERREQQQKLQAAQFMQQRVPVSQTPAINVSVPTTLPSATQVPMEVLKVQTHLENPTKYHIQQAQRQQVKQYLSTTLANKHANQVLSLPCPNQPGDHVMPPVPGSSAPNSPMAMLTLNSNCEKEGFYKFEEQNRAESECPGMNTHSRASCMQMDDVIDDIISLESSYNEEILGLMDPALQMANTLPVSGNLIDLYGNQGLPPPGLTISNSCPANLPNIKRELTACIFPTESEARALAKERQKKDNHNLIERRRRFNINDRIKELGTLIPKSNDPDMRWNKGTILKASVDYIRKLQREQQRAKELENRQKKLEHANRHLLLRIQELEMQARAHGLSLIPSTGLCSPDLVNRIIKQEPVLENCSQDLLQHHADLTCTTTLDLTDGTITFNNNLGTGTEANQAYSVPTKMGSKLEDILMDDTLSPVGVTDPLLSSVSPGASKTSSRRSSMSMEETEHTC

HEK293 [31] = experiment: inhibitors of LMP1-driven NF-kB reporter, dose response, cell-based, HEK293, luciferase, cherry-pick (AID 588343); format: functional; conditions: Homo sapiens
Bcl-2-related protein A1 = molecular target: T2, Bcl-2-related protein A1 (Mus musculus, UniProt Q07440); format: functional;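 also: confirmatory dose–response counterscreen on Bfl-1, used to check hits from a UBC13 polyubiquitin inhibitor campaign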
T2 sequence (Q07440 whole entry): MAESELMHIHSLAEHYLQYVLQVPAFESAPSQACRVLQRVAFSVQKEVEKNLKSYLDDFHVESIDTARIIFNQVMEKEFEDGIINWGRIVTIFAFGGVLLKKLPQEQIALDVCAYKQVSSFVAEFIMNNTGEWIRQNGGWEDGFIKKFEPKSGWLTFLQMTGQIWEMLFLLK

[32] = cytotoxicity in HEK-293T cells, dose response, cytotoxicity control for BCR NF-kB inhibitor project, luminescence, B-cell screen hits (AID 489021); format: functional, cell-based;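 also: HEK-293T cells carrying an NF-kB luciferase reporter; cells exposed to compound for about 14 hours before viability readout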

Induced myeloid leukemia cell differentiation protein Mcl-1, sequence (Q07820 whole entry): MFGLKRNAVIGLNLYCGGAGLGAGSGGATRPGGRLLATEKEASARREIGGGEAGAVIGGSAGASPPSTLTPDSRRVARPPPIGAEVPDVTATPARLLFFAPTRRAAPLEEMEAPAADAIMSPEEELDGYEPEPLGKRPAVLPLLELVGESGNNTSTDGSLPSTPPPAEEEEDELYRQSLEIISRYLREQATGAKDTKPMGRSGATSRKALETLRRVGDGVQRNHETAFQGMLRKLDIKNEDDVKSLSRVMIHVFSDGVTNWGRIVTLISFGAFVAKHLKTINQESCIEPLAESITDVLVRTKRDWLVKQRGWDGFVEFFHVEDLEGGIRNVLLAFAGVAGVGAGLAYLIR
Nucleotide-binding oligomerization domain-containing protein 2, sequence (Q9HC29 whole entry, the tested form may be a part): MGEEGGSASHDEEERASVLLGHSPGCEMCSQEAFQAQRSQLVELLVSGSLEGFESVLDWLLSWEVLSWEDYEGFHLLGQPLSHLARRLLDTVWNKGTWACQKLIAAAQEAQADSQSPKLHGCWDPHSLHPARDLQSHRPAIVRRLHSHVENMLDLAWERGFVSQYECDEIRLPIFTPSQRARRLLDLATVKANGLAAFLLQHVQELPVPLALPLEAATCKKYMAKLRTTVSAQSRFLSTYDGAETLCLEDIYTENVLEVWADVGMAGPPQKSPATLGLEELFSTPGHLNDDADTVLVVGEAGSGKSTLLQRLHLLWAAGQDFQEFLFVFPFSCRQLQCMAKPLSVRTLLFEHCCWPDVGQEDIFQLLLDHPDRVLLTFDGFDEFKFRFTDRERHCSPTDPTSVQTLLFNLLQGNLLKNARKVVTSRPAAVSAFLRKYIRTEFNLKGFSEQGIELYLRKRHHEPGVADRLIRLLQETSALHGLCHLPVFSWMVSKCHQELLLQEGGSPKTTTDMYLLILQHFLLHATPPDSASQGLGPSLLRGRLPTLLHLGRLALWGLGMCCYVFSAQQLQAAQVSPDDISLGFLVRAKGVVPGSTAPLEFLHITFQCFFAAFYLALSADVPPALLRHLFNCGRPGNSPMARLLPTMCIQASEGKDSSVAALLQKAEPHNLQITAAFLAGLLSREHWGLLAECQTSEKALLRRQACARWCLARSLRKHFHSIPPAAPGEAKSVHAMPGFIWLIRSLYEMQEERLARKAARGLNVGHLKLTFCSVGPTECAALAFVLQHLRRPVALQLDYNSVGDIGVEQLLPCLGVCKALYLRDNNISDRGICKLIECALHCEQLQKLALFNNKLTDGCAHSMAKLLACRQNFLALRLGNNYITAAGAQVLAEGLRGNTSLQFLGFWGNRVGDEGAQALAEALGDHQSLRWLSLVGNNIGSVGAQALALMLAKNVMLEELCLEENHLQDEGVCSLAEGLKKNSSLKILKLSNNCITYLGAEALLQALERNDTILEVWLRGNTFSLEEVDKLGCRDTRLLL
Paired box protein Pax-8, sequence (Q06710 whole entry): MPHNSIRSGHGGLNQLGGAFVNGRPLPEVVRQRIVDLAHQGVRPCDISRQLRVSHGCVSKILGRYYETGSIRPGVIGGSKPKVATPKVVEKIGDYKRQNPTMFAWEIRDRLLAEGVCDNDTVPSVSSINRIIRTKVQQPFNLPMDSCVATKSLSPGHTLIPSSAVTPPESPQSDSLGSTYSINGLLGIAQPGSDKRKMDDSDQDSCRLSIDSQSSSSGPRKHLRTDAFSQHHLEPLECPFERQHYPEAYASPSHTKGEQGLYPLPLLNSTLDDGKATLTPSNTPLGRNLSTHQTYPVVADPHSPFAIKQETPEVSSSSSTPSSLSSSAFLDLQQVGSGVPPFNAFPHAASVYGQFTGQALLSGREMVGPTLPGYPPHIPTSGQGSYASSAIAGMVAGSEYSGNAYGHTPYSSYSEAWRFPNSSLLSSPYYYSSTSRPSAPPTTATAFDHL
Cytochrome P450 2C19, sequence (P33261 whole entry): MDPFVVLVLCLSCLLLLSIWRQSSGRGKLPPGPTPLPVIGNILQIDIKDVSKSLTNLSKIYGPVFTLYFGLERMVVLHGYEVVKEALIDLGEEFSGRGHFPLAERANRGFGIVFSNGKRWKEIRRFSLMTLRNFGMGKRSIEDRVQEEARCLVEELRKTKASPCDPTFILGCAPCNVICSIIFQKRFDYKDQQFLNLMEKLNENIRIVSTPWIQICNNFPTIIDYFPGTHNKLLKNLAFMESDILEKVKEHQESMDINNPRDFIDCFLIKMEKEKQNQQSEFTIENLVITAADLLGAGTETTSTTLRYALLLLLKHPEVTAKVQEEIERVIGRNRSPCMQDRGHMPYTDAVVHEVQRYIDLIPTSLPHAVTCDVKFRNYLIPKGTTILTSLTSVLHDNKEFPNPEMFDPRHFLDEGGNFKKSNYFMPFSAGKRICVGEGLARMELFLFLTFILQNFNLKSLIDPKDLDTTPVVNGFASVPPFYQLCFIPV
Glucose-6-phosphate 1-dehydrogenase, sequence (P11413 whole entry): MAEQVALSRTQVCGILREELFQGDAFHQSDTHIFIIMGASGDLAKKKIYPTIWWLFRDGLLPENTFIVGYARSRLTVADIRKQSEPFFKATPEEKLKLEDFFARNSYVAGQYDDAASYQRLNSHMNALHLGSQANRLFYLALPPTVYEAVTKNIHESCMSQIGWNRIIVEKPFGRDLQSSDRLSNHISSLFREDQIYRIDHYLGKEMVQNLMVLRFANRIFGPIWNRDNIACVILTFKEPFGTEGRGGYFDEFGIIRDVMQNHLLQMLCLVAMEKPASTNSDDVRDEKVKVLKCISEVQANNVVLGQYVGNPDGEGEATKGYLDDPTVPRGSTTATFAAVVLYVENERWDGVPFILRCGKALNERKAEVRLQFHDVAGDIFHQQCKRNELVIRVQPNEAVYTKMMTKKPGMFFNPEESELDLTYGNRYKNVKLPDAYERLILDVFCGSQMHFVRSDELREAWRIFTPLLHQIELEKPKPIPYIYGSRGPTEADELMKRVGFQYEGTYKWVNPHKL

## COc1cccc(-n2c(SCC(=O)c3c[nH]c4ccccc34)nc3ccccc3c2=O)c1
Vero
  CC50: > 25 µM (active)

## O=C(CSc1nc2cc(Cl)c[nH]c-2n1)Nc1cccc(F)c1
[1]
  CC50: > 40 µM (active)

## COC(=O)c1sccc1NC(=O)CSc1ccccc1NS(=O)(=O)c1cc(Cl)ccc1Cl
HEK293 [2]
  EC50: 6.42 µM (active)
HEK293 [3]
  IC50: 8.22 µM (active)
HEK293 [4]
  IC50: > 20 µM (inactive)
[5]
  EC50: 6.35 µM (active)
HEK293 [6]
  IC50: 5.68 µM (active)
HEK293 [7]
  IC50: > 20 µM (inactive)

## O=C(c1ccc(S(=O)(=O)c2ccc(F)cc2)c([N+](=O)[O-])c1)N1CCCCCC1
HEK293 [2]
  EC50: 4.38 µM (active)
HEK293 [3]
  IC50: 5.7 µM (active)
HEK293 [4]
  IC50: > 20 µM (inactive)
[5]
  EC50: 14.8 µM (active)
HEK293 [6]
  IC50: 5.8 µM (active)
HEK293 [7]
  IC50: > 20 µM (inactive)
[8]
  AC50: 2.38 µM (active)
[9]
  AC50: 9.68 µM (active)

## CC(C)(C)c1ccc(CN2N=Nc3ccccc3S2(=O)=O)cc1
[10]
  IC50: 24.1 µM (active)

## Nc1c2c(nc3ccn(Cc4ccccc4)c(=O)c13)CCC2
[11]
  CC50: > 40 µM (active)

## Cc1cc(S)nc(-c2ccccn2)n1
[1]
  CC50: 31.8 µM (active)

## COC/C=C/C1=CC2=CC(=O)C(C)(OC(=O)c3ccco3)C(=O)C2=CO1 (stereo unspecified)
[10]
  IC50: 3.7 µM (active)

## CC1CCN(CC(=O)Nc2ccccc2C#N)CC1
Prothrombin
  IC50: > 50 µM (not active)

## O=C(NCCN1CCN(Cc2ccccc2)CC1)c1cc2c(O)nc3ccccc3c2s1
[12]
  EC50: 13 µM (active)
[13]
  EC50: 14.3 µM (active)

## CC(=O)Nc1nc(-c2ccc(Cl)cc2)nc(C)c1C(C)=O
[14]
  IC50: > 67.6 µM (inactive)

## CSc1nc(-c2ccccc2)nc(N2CCOCC2)c1C(C)=O
Prothrombin
  IC50: > 50 µM (not active)

## Cc1ccc2c(CC(=O)OCC(=O)Nc3ccc(Cl)cn3)coc2c1
Paired box protein Pax-8
  AC50: 14.2 µM (active)
[15]
  AC50: 52.7 µM (active)

## CCC(C)Oc1ccccc1C1CC(=O)NC2=C1C(=O)CCC2 (stereo unspecified)
[12]
  EC50: 12.5 µM (active)
[13]
  EC50: 12.7 µM (active)

## O=c1oc(-c2cccnc2)nc2ccccc12
Prothrombin
  IC50: 0.966 µM (active)

## CC(CC(=O)Nc1ccc(Cl)c([N+](=O)[O-])c1)c1ccccc1 (stereo unspecified)
[11]
  CC50: 30.7 µM (active)
Cytochrome P450 2C19
  AC50: 2.51 µM (inconclusive)

## Oc1ccc(CN2CCCCC2)c2cccnc12
[16]
  EC50: > 150 µM (inactive)
[17]
  EC50: > 38 µM (not active)
[18]
  EC50: 1.78 µM (active)
[12]
  EC50: 3.45 µM (active)
[19]
  EC50: 11.4 µM (active)
[13]
  EC50: 3 µM (active)

## O=C(CSc1nc2ccccc2[nH]1)NC1CCCc2ccccc21 (stereo unspecified)
[20]
  IC50: > 80 µM (inactive)

## COc1cc(S(=O)(=O)N2CCOCC2)ccc1NC(=O)COC(=O)COc1ccccc1
Prothrombin
  IC50: 3.63 µM (active)

## Cc1ccc(CNc2nc3ccccc3n2C)cc1
[14]
  IC50: > 67.5 µM (inactive)

## Cc1ccc(CSc2nccc(-c3c(C)nc4ccccn34)n2)cc1
[1]
  CC50: 24.7 µM (active)

## CC1(C)CC(=O)C2=C(C1)N1C(=C(C#N)C2c2ccccc2Cl)N=C(N)c2ccccc21 (stereo unspecified)
[12]
  EC50: 20.4 µM (active)
[13]
  EC50: 22.7 µM (active)

## Cc1cc(F)ccc1N1CCC(N2CCN(CCC(C)C)C(CCO)C2)CC1 (stereo unspecified)
Prothrombin
  IC50: > 50 µM (not active)

## COc1ccc(/C=C2\SC(=S)N(CCC(=O)N3CCCCC3)C2=O)cc1
Vero
  CC50: > 25 µM (active)

## C[C@H](CO)N1C[C@H](C)[C@H](CN(C)C)Oc2c(NC(=O)Nc3ccc(C(F)(F)F)cc3)cccc2C1=O
[21]
  AC50: 3.27 µM (active)

## C[C@@H]1CCCCO[C@@H](CN(C)C(=O)C2CCCCC2)[C@@H](C)CN([C@H](C)CO)C(=O)c2cc(NC(=O)Nc3ccc(C(F)(F)F)cc3)ccc2O1
[21]
  AC50: 1.91 µM (active)

## C[C@H]1CN([C@@H](C)CO)C(=O)c2cc(NS(=O)(=O)c3ccc(Cl)cc3)ccc2O[C@H]1CN(C)S(=O)(=O)c1ccc(Cl)cc1
[21]
  AC50: 4.63 µM (active)

## C[C@@H]1CN([C@@H](C)CO)C(=O)Cc2cc(NS(=O)(=O)c3cccs3)ccc2O[C@@H]1CN(C)Cc1ccc(C(=O)Nc2ccccc2N)cc1
[21]
  AC50: 2.33 µM (active)

## C/C=C/c1ccc2c(c1)O[C@H](CN(C)C(=O)c1cnccn1)[C@H](C)CN([C@@H](C)CO)S2(=O)=O
[22]
  AC50: 26.6 µM (active)
[23]
  AC50: 10.3 µM (active)

## CC(C)NC(=O)Nc1ccc2c(c1)CC(=O)N([C@H](C)CO)C[C@H](C)[C@H](CN(C)S(=O)(=O)c1cccs1)O2
[24]
  AC50: 7.82 µM (active)
[25]
  AC50: 4.72 µM (active)
[26]
  AC50: 12.8 µM (active)

## COc1cccc(/C=N/Nc2ncnc3c2ncn3Cc2ccccc2)c1O
Cells [27]
  EC50: 6.75 µM (active)
Cells [28]
  EC50: > 350 µM (not active)
[29]
  IC50: > 80 µM (inactive)
[30]
  AC50: 4.6 µM (active)
HEK293 [31]
  AC50: 4.68 µM (active)

## COC(=O)C[C@@H]1C[C@H]2c3cc(NS(=O)(=O)c4cccc(OC)c4)ccc3O[C@H]2[C@@H](CO)O1
[25]
  AC50: 3.74 µM (active)
[26]
  AC50: 66.1 µM (active)

## COc1cc2c3c(c1)c(/N=N/C(=N)S)c(O)n3C(C)(C)C=C2C
Bcl-2-related protein A1
  IC50: > 20 µM (inactive)
[32]
  IC50: > 80 µM (inactive)

## O=C(O)c1ccc(N/N=C/C=C/c2ccccc2[N+](=O)[O-])cc1
[14]
  IC50: > 67.6 µM (inactive)

## O=C(N/N=C/c1ccc(-c2cccc(C(F)(F)F)c2)o1)c1ccccc1O
[1]
  CC50: 11.5 µM (active)
